# What was measured:
# Experiment in all cases: relative viability (nuclei count vs DMSO), 5 days (fraction); higher = more cells survive
# Motesanib + Trametinib = compound: CC1(C)CNc2cc(NC(=O)c3cccnc3NCc3ccncc3)ccc21 [Motesanib] + CC(=O)Nc1cccc(-n2c(=O)n(C3CC3)c(=O)c3c(Nc4ccc(I)cc4F)n(C)c(=O)c(C)c32)c1 [Trametinib] (partner 0.02 µM)
# Summary of the method: (§1)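 After 5 days of treatment, lung cancer cells in 1536-well plates were fixed and stained in a single step (final 0.05% Triton X-100, 1% formaldehyde, 1 ug/ml Hoechst) and their nuclei counted on 4× images. Treatment had been applied by pin tool the day after seeding as one drug alone or as a fixed anchor-drug dose with five library-drug doses (not always all listed) in √10 steps. Relative viability is the nuclei count of treated wells divided by that of vehicle wells, and values are medians of duplicate plates.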
# Motesanib + Phenformin = compound: CC1(C)CNc2cc(NC(=O)c3cccnc3NCc3ccncc3)ccc21 [Motesanib] + N=C(N)NC(=N)NCCc1ccccc1 [Phenformin] (partner 250 µM)
# Summary of the method: as §1
# Motesanib + Decitabine = compound: CC1(C)CNc2cc(NC(=O)c3cccnc3NCc3ccncc3)ccc21 [Motesanib] + Nc1ncn([C@H]2C[C@H](O)[C@@H](CO)O2)c(=O)n1 [Decitabine] (partner 2 µM)
# Summary of the method: as §1
# [1] = compound: C[C@@]1(C(=O)Nc2ccc(F)nc2)CCCN1c1nc(Nc2cc(C3CC3)n[nH]2)c2cccn2n1 + CC1(C)CCC(c2ccc(Cl)cc2)=C(CN2CCN(c3ccc(C(=O)NS(=O)(=O)c4ccc(N[C@H](CCN5CCOCC5)CSc5ccccc5)c(S(=O)(=O)C(F)(F)F)c4)cc3)CC2)C1 [Navitoclax] (partner 0.5 µM)
# Summary of the method: as §1
Cell Line,relative viability (Motesanib + Trametinib; first compound 0.01 µM),relative viability (Motesanib + Trametinib; first compound 0.03162 µM),relative viability (Motesanib + Trametinib; first compound 0.1 µM),relative viability (Motesanib + Trametinib; first compound 0.3162 µM),relative viability (Motesanib + Trametinib; first compound 1 µM),relative viability (Motesanib + Phenformin; first compound 0.01 µM),relative viability (Motesanib + Phenformin; first compound 0.03162 µM),relative viability (Motesanib + Phenformin; first compound 0.1 µM),relative viability (Motesanib + Phenformin; first compound 0.3162 µM),relative viability (Motesanib + Phenformin; first compound 1 µM),relative viability (Motesanib + Decitabine; first compound 0.01 µM),relative viability (Motesanib + Decitabine; first compound 0.03162 µM),relative viability (Motesanib + Decitabine; first compound 0.1 µM),relative viability (Motesanib + Decitabine; first compound 0.3162 µM),relative viability (Motesanib + Decitabine; first compound 1 µM),relative viability ([1]; first compound 0.04 µM),relative viability ([1]; first compound 0.1265 µM),relative viability ([1]; first compound 0.4 µM),relative viability ([1]; first compound 1.265 µM)
NCI-H2009,0.244,0.316,0.273,0.291,0.289,0.491,0.36,0.544,0.481,0.487,0.394,0.369,0.394,0.38,0.463,1.26,1.23,1.11,1.29
NCI-H2405,0.53,0.603,0.625,0.684,0.704,,0.265,0.404,0.402,0.422,0.77,0.773,0.719,0.833,0.78,0.813,0.635,0.584,0.597
NCI-H1755,0.782,0.765,0.799,0.85,0.831,0.618,0.631,0.665,0.747,0.619,0.775,0.838,0.864,0.905,0.913,1,0.864,0.913,0.971
HCC-78,0.653,0.671,0.701,,0.735,0.605,0.73,0.715,0.822,0.707,0.657,0.654,0.808,,0.817,0.7,0.505,0.308,0.268
LOU-NH91,0.789,0.767,0.819,0.802,0.781,0.672,0.736,0.78,0.75,0.78,0.829,0.815,0.848,0.838,0.809,0.706,0.77,0.61,0.686
NCI-H3122,0.218,0.227,0.229,0.211,0.197,0.351,0.338,0.409,0.427,0.375,0.436,0.409,0.422,0.548,0.614,1.05,1.06,1.06,1.02
HCC-827,0.442,0.593,0.505,0.541,0.623,0.449,0.475,0.405,0.448,0.451,0.332,0.421,0.406,0.344,0.309,1.02,1,1.01,1
SK-LU-1,0.424,0.591,0.476,0.536,0.544,0.489,0.5,0.539,0.569,0.591,0.676,0.649,0.823,0.831,0.824,0.958,0.689,0.816,0.42
NCI-H1975,0.335,0.359,0.316,0.38,0.339,0.407,0.391,0.393,0.409,0.441,0.364,0.459,0.406,0.487,0.426,0.988,1.06,0.773,0.765
NCI-H1651,0.817,0.796,0.777,0.849,0.847,0.295,0.367,0.342,0.352,0.339,0.591,0.751,0.661,0.585,0.731,0.963,1.12,0.861,1.16
NCI-H441,0.41,0.435,0.463,0.577,0.472,0.895,0.873,0.845,0.913,0.822,0.271,0.307,0.502,0.514,0.478,0.363,0.413,0.116,0.505
LCLC-97TM1,0.152,0.202,0.198,0.226,0.195,0.427,0.424,0.46,0.419,0.418,0.251,0.26,0.285,0.261,0.295,0.117,0.32,0.196,0.324
NCI-H727,0.381,0.363,0.385,0.379,0.354,0.408,0.613,0.664,0.587,0.487,0.861,0.927,0.929,0.804,0.937,0.175,0.185,0.106,0.14
NCI-H1355,0.398,0.473,0.463,0.4,0.459,0.436,0.416,0.49,0.482,0.475,0.4,0.413,0.395,0.415,0.495,0.776,0.924,0.787,0.86
HOP-62,0.366,0.379,0.37,0.405,0.424,0.641,0.694,0.678,0.74,0.761,0.179,0.233,0.573,0.608,0.774,1.12,0.887,0.826,1.03
NCI-H2085,0.513,0.537,0.521,0.535,0.526,0.745,0.759,0.756,0.781,0.759,0.551,0.684,0.702,0.644,0.71,1.22,1.07,0.984,1.05

# — the supplement of paper PMC10307832
